Values of other authors, collected in US20150164812A1, “Porous Tablets As Carriers For Liquid Formulations” (Veloxis Pharmaceuticals A/S, priority 2004, published 2015).
Counter-ions that a name gives are not always drawn. Like-named read-outs stand apart in the source and are kept apart here.

Tests used:
[1] = not given; remark: listed apart in the source
[2] = Table 1 Poorly-Soluble Drug Candidates
[3] = Table 2 Poorly-Soluble Drugs with Low Bioavailability

SMILES | Solubility In Water [2] | Solubility In Water [3] | also measured
Cc1ccc(-c2nc3ccc(C)cn3c2CC(=O)N(C)C)cc1 [Zolpidem] | Sparingly | – | –
CC(C(=O)O)c1ccc(-c2ccccc2)c(F)c1 (stereo not drawn) [Flurbiprofen] | Slightly | – | –
CN1C(C(=O)Nc2ccccn2)=C(O)c2ccccc2S1(=O)=O [Piroxicam] | Sparingly | – | –
CCOC(=O)[C@H](CCc1ccccc1)N[C@@H](C)C(=O)N1[C@H](C(=O)O)C[C@@H]2CCC[C@@H]21 [Ramipril] | Insoluble | – | –
COc1cc2nc(N3CCN(C(=O)C4COc5ccccc5O4)CC3)nc(N)c2cc1OC (stereo not drawn) [Doxazosin] | Slightly | – | –
CCCCCc1cc(O)c2c(c1)OC(C)(C)[C@@H]1CCC(C)=C[C@@H]21 [Dronabinol] | – | Insoluble | –
CO/N=C(\C(=O)N[C@@H]1C(=O)N2C(C(=O)O)=C(COC(C)=O)CS[C@H]12)c1csc(N)n1 [Cefotaxime] | Sparingly | – | –
OC(Cn1cncn1)(Cn1cncn1)c1ccc(F)cc1F [Fluconazole] | Slightly | – | –
CC(=O)OC[C@H]1O[C@@H]([S-])[C@H](OC(C)=O)[C@@H](OC(C)=O)[C@@H]1OC(C)=O.CCP(CC)CC.[Au+] [Auranofin] | – | Slightly soluble | Bioavailability ([1]; in vivo): Low (15-25%)
CC(C)(C)c1ccc(C(O)CCCN2CCC(C(O)(c3ccccc3)c3ccccc3)CC2)cc1 (stereo not drawn) [Terfenadine] | Slightly | – | –
NC(=O)N1c2ccccc2C=Cc2ccccc21 [Carbamazepine] | Insoluble | – | –
CC[C@H](C)C(=O)O[C@H]1C[C@@H](C)C=C2C=C[C@H](C)[C@H](CC[C@@H]3C[C@@H](O)CC(=O)O3)[C@H]21 [Lovastatin] | Insoluble | Insoluble | –
CCOC(=O)C1=C(C)NC(C)=C(C(=O)OC)C1c1cccc(Cl)c1Cl (stereo not drawn) [Felodipine] | Insoluble | Insoluble | –
OCCN1CCN(CCCN2c3ccccc3Sc3ccc(Cl)cc32)CC1 [Perphenazine] | – | – | Bioavailability ([1]; in words): Low
CCc1cccc2c3c([nH]c12)C(CC)(CC(=O)O)OCC3 (stereo not drawn) [Etodolac] | Insoluble | – | –
CN1CCN(C2=Nc3cc(Cl)ccc3Nc3ccccc32)CC1 [Clozapine] | Slightly | – | –
COc1ccc2cc(CCC(C)=O)ccc2c1 [Nabumetone] | Insoluble | Insoluble | –
COCCCC/C(=N\OCCN)c1ccc(C(F)(F)F)cc1 [Fluvoxamine] | Sparingly | – | –
CC(=O)S[C@@H]1CC2=CC(=O)CC[C@]2(C)[C@H]2CC[C@@]3(C)[C@@H](CC[C@@]34CCC(=O)O4)[C@H]12 [Spironolactone] | – | Insoluble | –
CC(CCc1ccc(O)cc1)NCCc1ccc(O)c(O)c1 (stereo not drawn) [Dobutamine] | Sparingly | – | –
CN[C@H]1CC[C@@H](c2ccc(Cl)c(Cl)c2)c2ccccc21 [Sertraline] | Slightly | Slightly soluble | –
CCOC(=O)[C@H](CCc1ccccc1)N[C@@H](C)C(=O)N1Cc2ccccc2C[C@H]1C(=O)O [Quinapril] | Insoluble | – | –
COc1cc([C@@H]2c3cc4c(cc3[C@@H](O[C@@H]3O[C@@H]5CO[C@@H](C)O[C@H]5[C@H](O)[C@H]3O)[C@H]3COC(=O)[C@H]23)OCO4)cc(OC)c1O [Etoposide] | Very Slightly | – | –
NC(N)=Nc1nc(CSCCC(N)=NS(N)(=O)=O)cs1 [Famotidine] | Slightly | Slightly soluble | –
C=CCC1(CC(C)C)C(=O)NC(=O)NC1=O [Butalbital] | Insoluble | – | –

SMILES | Solubility In Water [2] | Solubility In Water [3] | also measured
COc1ccc2[nH]c([S+]([O-])Cc3ncc(C)c(OC)c3C)nc2c1 (stereo not drawn) [Omeprazole] | Slightly | – | –
CCOC(=O)[C@H](CCc1ccccc1)N[C@@H](C)C(=O)N1CCC[C@H]1C(=O)O [Enalapril] | Sparingly | – | –
CC1CC(OC(=O)C(O)c2ccccc2)CC(C)(C)C1 (stereo not drawn) [Cyclandelate] | – | Insoluble | Bioavailability ([1]; in words): Low
COC(=O)C1=C(C)NC(C)=C(C(=O)OC(C)C)C1c1cccc2nonc12 (stereo not drawn) [Isradipine] | Insoluble | Insoluble | –
OCCN1CCN(CCCN2c3ccccc3Sc3ccc(C(F)(F)F)cc32)CC1 [Fluphenazine] | – | Insoluble | –
C[C@]12CC[C@H]3[C@@H](CCC4=CC(=O)CC[C@@]43C)[C@@H]1CC[C@@H]2O [Testosterone] | – | Insoluble | Bioavailability ([1]; in words): Low
CC(C)Cc1ccc(C(C)C(=O)O)cc1 (stereo not drawn) [Ibuprofen] | Insoluble | – | –
COc1ccc(CCN2CCC(Nc3nc4ccccc4n3Cc3ccc(F)cc3)CC2)cc1 [Astemizole] | Insoluble | Insoluble | Bioavailability ([1]; in words): Low-moderate
CN1CCCC(n2nc(Cc3ccc(Cl)cc3)c3ccccc3c2=O)CC1 (stereo not drawn) [Azelastine] | Insoluble | – | –
CC(=O)O[C@H]1C(=O)[C@@]2(C)[C@H]([C@H](OC(=O)c3ccccc3)[C@]3(O)C[C@H](OC(=O)[C@H](O)[C@@H](NC(=O)c4ccccc4)c4ccccc4)C(C)=C1C3(C)C)[C@]1(OC(C)=O)CO[C@@H]1C[C@@H]2O [Paclitaxel] | Insoluble | – | –
CC(C)(C)NC(=O)[C@H]1CC[C@H]2[C@@H]3CC[C@H]4NC(=O)C=C[C@]4(C)[C@H]3CC[C@]12C [Finasteride] | Insoluble | – | –
Cc1c(OCC(F)(F)F)ccnc1C[S+]([O-])c1nc2ccccc2[nH]1 (stereo not drawn) [Lansoprazole] | Insoluble | – | –
OC(CCN1CCCCC1)(c1ccccc1)C1CC2C=CC1C2 (stereo not drawn) [Biperiden] | – | Sparingly soluble | –
CC(=O)N1CCN(c2ccc(OCC3COC(Cn4ccnc4)(c4ccc(Cl)cc4Cl)O3)cc2)CC1 (stereo not drawn) [Ketoconazole] | Insoluble | – | –
Cc1cccc(Nc2ccccc2C(=O)O)c1C [Mefenamic acid] | Slightly | – | –
CN1CCC[C@@H]1CCO[C@](C)(c1ccccc1)c1ccc(Cl)cc1 [Clemastine fumarate] | – | Slightly soluble | –
O=[N+]([O-])O[C@H]1CO[C@H]2[C@@H]1OC[C@H]2O[N+](=O)[O-] [Isosorbide dinitrate] | Sparingly | Sparingly soluble | –
C[C@@](Cc1ccc(O)c(O)c1)(NN)C(=O)O [Carbidopa] | Slightly | – | –
Cc1nnc2n1-c1ccc(Cl)cc1C(c1ccccc1)=NC2 [Alprazolam] | Insoluble | – | –
CC1=C(/C=C/C(C)=C/C=C/C(C)=C\C(=O)O)C(C)(C)CCC1 [Isotretinoin] | Insoluble | – | –
CO[C@]12C[C@@H](COC(=O)c3cncc(Br)c3)CN(C)[C@@H]1Cc1cn(C)c3cccc2c13 [Nicergoline] | Insoluble | – | –
OCCN(CCO)c1nc(N2CCCCC2)c2nc(N(CCO)CCO)nc(N3CCCCC3)c2n1 [Dipyridamole] | Slightly | – | –
C[C@@H]1C[C@H]2[C@@H]3CCC4=CC(=O)C=C[C@]4(C)[C@@]3(Cl)[C@@H](O)C[C@]2(C)[C@@]1(O)C(=O)CCl [Mometasone] | Insoluble | – | –
C#C[C@]1(O)CC[C@H]2[C@@H]3CCC4=Cc5oncc5C[C@]4(C)[C@H]3CC[C@@]21C [Danazol] | – | – | Bioavailability ([1]; in words): Low
O=C1NC(=O)C(c2ccccc2)(c2ccccc2)N1 [Phenytoin] | Insoluble | – | –
